From patent publication US20240376094A2, “SELECTIVE BCL-XL PROTAC COMPOUNDS AND METHODS OF USE” (Les Laboratoires Servier, priority 2021, published 2024)

Tests used:
Format in all cases: cell-based
MOLT-4 cells [1] = assay: MOLT-4 cell viability, MTT assay; conditions: Homo sapiens, MOLT-4, 48 h
Procedure, shortened: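 MOLT-4 cells in RPMI 1640 with 10% FBS were exposed to compounds for 48 h at 9 concentrations (3.16-fold dilutions, triplicates). After 4 h with MTT and overnight SDS/HCl solubilisation, absorbance was read at 540 nm. IC50 came from four-parameter fits versus control, as the mean of ≥2 independent experiments.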

Bcl-xL = biological target: T1, Bcl-xL (Homo sapiens, UniProt Q07817); assay: HCT116 Bcl-xL degradation, capillary-based immunoassay (WES); conditions: for DC50: HCT116, 24 h, 9-point serial dilution; for remaining activity at 0.01 µM / remaining activity at 0.1 µM: HCT-116, 24 h, % of untreated cells; for remaining activity at 0.01 µM: HCT116, 10 nM; for remaining activity at 0.1 µM: HCT116, 100 nM
T1 construct: Measured levels of Bcl-xL protein of HCT116 cells treated with the tested compounds; host or cells: HCT116
Procedure, shortened: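 HCT116 cells treated 24 h with compound at 10/100 nM and/or 9-point dilution (quadruplicates), then lysed. Bcl-xL measured by capillary WES immunoassay, normalized to cofilin and expressed as % of untreated cells. DC50 from four-parameter curve fit.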

[2] = system: EBC-1 lung cancer cell line; assay: EBC-1 cell proliferation, CellTiter-Glo assay; conditions: Homo sapiens, 120 h; Ebc-1 cell viability, CTG assay, 5 days of treatment; read-out: CTG 5 day Ebc1 GI50
Procedure, shortened: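 EBC-1 cells seeded at 1000 per well overnight, then exposed to 10-point dilutions (0.508 nM–10 μM final) for 5 days at 37 °C, in triplicate. ATP luminescence by CellTiter-Glo, normalised to untreated wells; GI50 from four-parameter logistic fit, runs valid only with at least one doubling.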

HiBiT-tagged BCL-xL = biological target: T2, HiBiT-tagged BCL-xL (Homo sapiens, UniProt Q07817); assay: NCI-H1650 BCL-xL protein levels, Nano-Glo HiBiT Lytic Detection; conditions: NCI-H1650 expressing HiBiT-tagged BCL-xL, overnight incubation, read-out: Bcl-xl HIBIT NCIH1650 DC50
T2 construct: expressed in transfected cells; host or cells: NCI-H1650 (ATCC No. CRL-5883), engineered HiBiT cell line
Procedure, shortened: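 NCI-H1650 cells expressing HiBiT-tagged BCL-xL (5000/well) were treated overnight at 37° C with 10 concentrations, final 0.508 nM-10 μM, in triplicate. Remaining BCL-xL measured by Nano-Glo HiBiT lytic luminescence, normalized to untreated cells; 50% values by four-parameter logistic fit.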

MOLT-4 cells [3] = assay: MOLT-4 cell viability, CTG assay; conditions: Homo sapiens, MOLT-4, 48 h
Procedure, shortened: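 Cells grown in RPMI 1640 with 10% FBS at 37° C, 5% CO2, then exposed to compounds for 48 h (11-point 5-fold dilution, triplicates). ATP measured by CellTiter-Glo luminescence; IC50 from four-parameter fit versus control, mean of ≥2 independent experiments.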

T2 sequence (Q07817 whole entry): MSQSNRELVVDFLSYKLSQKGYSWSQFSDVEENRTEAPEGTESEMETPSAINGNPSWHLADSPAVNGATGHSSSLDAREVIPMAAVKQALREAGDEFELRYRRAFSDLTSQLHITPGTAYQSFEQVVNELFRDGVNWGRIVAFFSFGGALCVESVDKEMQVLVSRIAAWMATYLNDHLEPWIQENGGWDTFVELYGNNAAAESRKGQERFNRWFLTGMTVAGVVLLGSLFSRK
T1 sequence (Q07817 whole entry): as above

Row | IC50 (MOLT-4 cells [1]) | DC50 (Bcl-xL) | remaining activity at 0.01 µM (Bcl-xL) | remaining activity at 0.1 µM (Bcl-xL) | GI50 [2] | DC50 (HiBiT-tagged BCL-xL) | IC50 (MOLT-4 cells [3]) | Compound
1 | 0.493 nM | 0.742 nM | 52% | 34% | 2 nM | 1 nM |  | Cc1ncsc1-c1ccc([C@H](C)NC(=O)[C@@H]2CC(O)CN2C(=O)[C@@H](NC(=O)CCCCCCCCCCCCCCN(C)CCOC23CC4(C)CC(C)(CC(Cn5ncc(-c6ccc(N7CCCc8c7nnc(Nc7nc9ccccc9s7)c8C)nc6C(=O)O)c5C)(C4)C2)C3)C(C)(C)C)cc1 (stereo in doubt) [Example 7, 6-[3-(1,3-benzothiazol-2-ylamino)-4-methyl-6,7-dihydro-5H-pyrido[2,3-c]pyridazin-8-yl]-3-[1-[[3-[2-[[15-[[(1S)-1-[(2S,4R)-4-hydroxy-2-[[(1S)-1-[4-(4-methylthiazol-5-yl)phenyl]ethyl]carbamoyl]pyrrolidine-1-carbonyl]-2,2-dimethyl-propyl]amino]-15-oxo-pentadecyl]-methyl-amino]ethoxy]-5,7-dimethyl-1-adamantyl]methyl]-5-methyl-pyrazol-4-yl]pyridine-2-carboxylic acid]
2 | 1.07 nM | 0.47 nM | 7% | 7% | 9 nM | 3 nM |  | Cc1ncsc1-c1ccc([C@H](C)NC(=O)C2C[C@@H](O)CN2C(=O)C(NC(=O)CCCCCCC(=O)N2CCN(CC#Cc3ccc(OCCCc4sc(N5CCCc6c5nnc(Nc5nc7ccccc7s5)c6C)nc4C(=O)O)c(F)c3)CC2)C(C)(C)C)cc1 (stereo in doubt) [Example 16, 2-[3-(1,3-benzothiazol-2-ylamino)-4-methyl-6,7-dihydro-5H-pyrido[2,3-c]pyridazin-8-yl]-5-[3-[2-fluoro-4-[3-[4-[8-[[(1S)-1-[(2S,4R)-4-hydroxy-2-[[(1S)-1-[4-(4-methylthiazol-5-yl)phenyl]ethyl]carbamoyl]pyrrolidine-1-carbonyl]-2,2-dimethyl-propyl]amino]-8-oxo-octanoyl]piperazin-1-yl]prop-1-ynyl]phenoxy]propyl]thiazole-4-carboxylic acid]
3 | 3.84 nM | 0.488 nM | 32% | 9% | 31 nM | > 1670 nM |  | Cc1ncsc1-c1ccc([C@H](C)NC(=O)C2C[C@@H](O)CN2C(=O)C(NC(=O)CCCCCC(=O)N2CCN(CC#Cc3ccc(OCCCc4sc(N5CCCc6c5nnc(Nc5nc7ccccc7s5)c6C)nc4C(=O)O)c(F)c3)CC2)C(C)(C)C)cc1 (stereo in doubt) [Example 17, 2-[3-(1,3-benzothiazol-2-ylamino)-4-methyl-6,7-dihydro-5H-pyrido[2,3-c]pyridazin-8-yl]-5-[3-[2-fluoro-4-[3-[4-[7-[[(1S)-1-[(2S,4R)-4-hydroxy-2-[[(1S)-1-[4-(4-methylthiazol-5-yl)phenyl]ethyl]carbamoyl]pyrrolidine-1-carbonyl]-2,2-dimethyl-propyl]amino]-7-oxo-heptanoyl]piperazin-1-yl]prop-1-ynyl]phenoxy]propyl] thiazole-4-carboxylic acid]
4 | 1.06 nM | 0.286 nM | 26% | 11% | 13 nM | 1 nM |  | Cc1ncsc1-c1ccc([C@H](C)NC(=O)[C@@H]2C[C@@H](O)CN2C(=O)[C@@H](NC(=O)CCCCCCCCCCCN(C)CCOC23CC4(C)CC(C)(CC(Cn5ncc(-c6ccc(N7CCCc8c7nnc(Nc7nc9ccccc9s7)c8C)nc6C(=O)O)c5C)(C4)C2)C3)C(C)(C)C)cc1 [Example 2, 6-[3-(1,3-benzothiazol-2-ylamino)-4-methyl-6,7-dihydro-5H-pyrido[2,3-c]pyridazin-8-yl]-3-[1-[[3-[2-[[12-[[(1S)-1-[(2S,4R)-4-hydroxy-2-[[(1S)-1-[4-(4-methylthiazol-5-yl)phenyl]ethyl]carbamoyl]pyrrolidine-1-carbonyl]-2,2-dimethyl-propyl]amino]-12-oxo-dodecyl]-methyl-amino]ethoxy]-5,7-dimethyl-1-adamantyl]methyl]-5-methyl-pyrazol-4-yl]pyridine-2-carboxylic acid]
5 | 32.1 nM | 4.21 nM | 23% | 17% | 9 nM | 3 nM |  | Cc1ncsc1-c1ccc([C@H](C)NC(=O)[C@@H]2C[C@@H](O)CN2C(=O)[C@@H](NC(=O)CCCCCCN(C)CCOC23CC4(C)CC(C)(CC(Cn5ncc(-c6ccc(N7CCCc8c7nnc(Nc7nc9ccccc9s7)c8C)nc6C(=O)O)c5C)(C4)C2)C3)C(C)(C)C)cc1 [Example 3, 6-[3-(1,3-benzothiazol-2-ylamino)-4-methyl-6,7-dihydro-5H-pyrido[2,3-c]pyridazin-8-yl]-3-[1-[[3-[2-[[7-[[(1S)-1-[(2S,4R)-4-hydroxy-2-[[(1S)-1-[4-(4-methylthiazol-5-yl)phenyl]ethyl]carbamoyl]pyrrolidine-1-carbonyl]-2,2-dimethyl-propyl]amino]-7-oxo-heptyl]-methyl-amino]ethoxy]-5,7-dimethyl-1-adamantyl]methyl]-5-methyl-pyrazol-4-yl]pyridine-2-carboxylic acid]
6 | 133 nM |  | 118% | 73% |  |  | 477 nM | CNCC#Cc1ccc(OCCCc2sc(N(CCCc3cn(CCCCCCCCNC(=O)COc4cccc5c4C(=O)N(C4CCC(=O)NC4=O)C5=O)nn3)c3cc(C)c(Nc4nc5ccccc5s4)nn3)nc2C(=O)O)c(F)c1 (stereo not shown) [Example 30, 2-[[6-(1,3-benzothiazol-2-ylamino)-5-methyl-pyridazin-3-yl]-[3-[1-[8-[[2-[2-(2,6-dioxo-3-piperidyl)-1,3-dioxo-isoindolin-4-yl]oxyacetyl]amino]octyl]triazol-4-yl]propyl]amino]-5-[3-[2-fluoro-4-[3-(methylamino)prop-1-ynyl]phenoxy]propyl]thiazole-4-carboxylic acid]
7 | 92.8 nM | 46.2 nM | 59% | 40% |  |  | 118 nM | Cc1cc(N(CCCCCn2cc(CCCCCCCNC(=O)COc3cccc4c3C(=O)N(C3CCC(=O)NC3=O)C4=O)nn2)c2ccc(-c3cnn(CC45CC6(C)CC(C)(C4)CC(OCCN(C)C)(C6)C5)c3C)c(C(=O)O)n2)nnc1Nc1nc2ccccc2s1 (stereo not shown) [Example 64, 6-[[6-(1,3-benzothiazol-2-ylamino)-5-methyl-pyridazin-3-yl]-[5-[4-[7-[[2-[2-(2,6-dioxo-3-piperidyl)-1,3-dioxo-isoindolin-4-yl]oxyacetyl]amino]heptyl]triazol-1-yl]pentyl]amino]-3-[1-[[3-[2-(dimethylamino)ethoxy]-5,7-dimethyl-1-adamantyl]methyl]-5-methyl-pyrazol-4-yl]pyridine-2-carboxylic acid]
8 | 156 nM |  | 90% | 78% |  |  | 140 nM | Cc1cc(N(CCCCCn2cc(COCCOCCNC(=O)COc3cccc4c3C(=O)N(C3CCC(=O)NC3=O)C4=O)nn2)c2ccc(-c3cnn(CC45CC6(C)CC(C)(C4)CC(OCCN(C)C)(C6)C5)c3C)c(C(=O)O)n2)nnc1Nc1nc2ccccc2s1 (stereo not shown) [Example 65, 6-[[6-(1,3-benzothiazol-2-ylamino)-5-methyl-pyridazin-3-yl]-[5-[4-[2-[2-[[2-[2-(2,6-dioxo-3-piperidyl)-1,3-dioxo-isoindolin-4-yl]oxyacetyl]amino]ethoxy]ethoxymethyl]triazol-1-yl]pentyl]amino]-3-[1-[[3-[2-(dimethylamino)ethoxy]-5,7-dimethyl-1-adamantyl]methyl]-5-methyl-pyrazol-4-yl]pyridine-2-carboxylic acid]
9 | 3.31 nM | 21.2 nM |  |  |  | > 1670 nM |  | Cc1ncsc1-c1ccc(CNC(=O)[C@@H]2C[C@@H](O)CN2C(=O)[C@@H](NC(=O)C2(F)CC2)C(C)(C)C)c(OCCCCCCCCN(C)CCOC23CC4(C)CC(C)(CC(Cn5ncc(-c6ccc(N7CCCc8c7nnc(Nc7nc9ccccc9s7)c8C)nc6C(=O)O)c5C)(C4)C2)C3)c1 [Example 138, 6-[3-(1,3-benzothiazol-2-ylamino)-4-methyl-6,7-dihydro-5H-pyrido[2,3-c]pyridazin-8-yl]-3-[1-[[3-[2-[8-[2-[[[(2S,4R)-1-[(2S)-2-[(1-fluorocyclopropanecarbonyl)amino]-3,3-dimethyl-butanoyl]-4-hydroxy-pyrrolidine-2-carbonyl]amino]methyl]-5-(4-methylthiazol-5-yl)phenoxy]octyl-methyl-amino]ethoxy]-5,7-dimethyl-1-adamantyl]methyl]-5-methyl-pyrazol-4-yl]pyridine-2-carboxylic acid]
